This note sets out measurements from US6169181A, “Compounds useful to treat retroviral infections” (Pharmacia & Upjohn Company, priority 1998, dated 2001).

Test [1] addresses T1, single chain tethered (tandem) HIV protease (HIV-1 M:B_HXB2R, UniProt P04585).
T1 construct: purified enzyme, FITC/biotin substrate assay
Briefly: Tandem HIV protease assay. It is filed as biochemical. As to conditions: read-out: FITC KI; Table II; enzyme HIV1TANDEM. As for the experimental part:
In the enzyme inhibition assay described above, the sensitivity of Ki value determination is in part limited by the ability to continue to lower the enzyme concentration for compounds with high binding affinity. To prevent de-dimerization at low enzyme concentration, a tandemly linked enzyme is prepared in which the two monomers are covalently linked by an appropriate stretch of amino acid residues. Using the latter enzyme, the sensitivity of the inhibition assay is improved since much lower enzyme concentration can be utilized, as compared to the condition using the wild-type enzyme.
The starting inhibitor concentrations are determined based on preliminary enzyme inhibition screening results which estimate the expected potency of the inhibitor. Inhibitor concentrations are then prepared using the Biomek 1000 (Beckman) and the Quadra 96 (Tomtec). Substrate (biotinylated at the amino terminal arginine and fluorescently labeled with fluorescein at the carboxyl terminal lysine), inhibitor and the tandem enzyme are allowed to react in solution at pH 5.5 (buffers identical to those used with the native dimeric enzyme) in the dark for 96 hours. Streptavidin coated polystyrene beads are added to stop the reaction. The labeled cleavage product is separated from unreacted substrate via filtration. Residual fluorescence is quantitated with the Idexx SM2000 (Idexx) and the resulting data are analyzed using the NLLSF program.

The target in test [2] is T2, HIV-1 protease (Human immunodeficiency virus type 1 group M subtype B, UniProt P04585). Briefly: biochemical. An outline of the steps:
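Biotinylated, FITC-labelled peptide substrate cleaved in 0.1 M sodium acetate pH 5.5, 1.0 M NaCl, 0.05% NP-40, room temperature. Filtered labelled product read by fluorescence; nonlinear least-squares fit.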

For test [3], the target named is T2, HIV-1 protease. Briefly: biochemical. The note with it: for inhibition at 0.123 µM / inhibition at 0.37 µM / inhibition at 1.1 µM / inhibition at 3.3 µM / inhibition at 10 µM / inhibition at 30 µM: Table I, read-out: Protease % Inhib; for inhibition at 0.37 µM: Dose 0.370 μM; for inhibition at 1.1 µM: Dose 1.100 μM; for inhibition at 3.3 µM: Dose 3.300 μM; for PROTEASE % INHIB.: Table II, enzyme HIV-1. The essentials: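 Percent inhibition came from fluorescence of FITC-tagged cleavage product, separated by filtration from uncleaved substrate captured on streptavidin-coated beads. The enzyme (10 μl of 0.1 μM) and compound acted on a biotin/FITC dual-labelled peptide for one hour at room temperature in the dark. The reaction ran in 0.1 M sodium acetate, pH 5.5, with 1.0 M NaCl and 0.05% NP-40.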

Where [4] appears, read: Table I, read-out: HIV Protease FITC Assay Ki.
Where [5] appears, read: Table II, enzyme HIV-1, read-out: FITC KI.

Where “and” joins values, the source holds several entries; their conditions need not be identical. Equal values may be shown once. Read-outs that look alike come from different tables or passages of the source.

On to `CCCC1(CCC)CC(O)=C(C(CC)c2cccc(NS(=O)(=O)c3ccc(N)cn3)c2)C(=O)O1` (single isomer, unassigned) [Example 363, N-[3-{1(R or S)-(4-Hydroxy-5,6-dihydro-2-oxo-6,6-dipropyl-2H-pyran-3-yl)-propyl}phenyl]-5-aminopyridine-2-sulfonamide], for which, in test [1], the inhibitory constant (Ki) (usually the dissociation constant of the complex between target and ligand, obtained from inhibition or displacement) stood at 0.083 nM.

For the compound `Cn1cnc(S(=O)(=O)Nc2cccc(C(C3=C(O)CC(CCc4ccccc4)(CCc4ccccc4)OC3=O)C(C)(C)C)c2)c1` (single isomer, unassigned) [Example 357, N-[3-{1(R or S)-(4-Hydroxy-5,6-dihydro-2-oxo-6,6-bis(2-phenylethyl)-2H-pyran-3-yl)-2,2-dimethylpropyl}phenyl]-1-methyl-1H-imidazole-4-sulfonamide], the inhibition constant (Ki) in test [1] came to 48.5 nM.

Turning to `CCCC1(CCc2ccccc2)CC(O)=C(C(c2cccc(NS(=O)(=O)c3cc(C(F)(F)F)ccn3)c2)C(C)(C)C)C(=O)O1` (single isomer, unassigned) [Example 296, 4-Trifluoromethyl-N-[3(R or S)-[1-[5,6-dihydro-4-hydroxy-2-oxo-6(R or S)-(2-phenethyl)-6(R or S)-n-propyl-2H-pyran-3-yl]-2,2-dimethylpropyl]-phenyl]-2-pyridinesulfonamide], in test [1], the Ki was 0.042 nM.

Turning to `CCC(C1=C(O)CC(CCc2ccccc2)(CCc2ccccc2)OC1=O)c1cccc(NS(=O)(=O)c2ccc(C#N)cn2)c1` (single isomer, unassigned) [Example 326, N-[3(R or S)-(1-[6,6-Bis(2-phenyl-ethyl)-5,6-dihydro-4-hydroxy-2-oxo-2H-pyran-3-yl]propyl)phenyl]-5-cyano-2-pyridinesulfonamide], in test [1], the Ki came to 0.029 nM.

On to `CCC[C@@]1(CCc2ccccc2)CC(O)=C([C@@H](c2cccc(NS(=O)(=O)c3ccc(N)cn3)c2)C(C)(C)C)C(=O)O1` (single isomer, unassigned) [Example 312, 5-Amino-N-[3(R or S)-(1-[5,6-dihydro-4-hydroxy-2-oxo-6(R or S)-(2-phenylethyl)-6-propyl-2H-pyran-3-yl]-2,2-dimethylpropyl)-phenyl]-2-pyridinesulfonamide], for which the Ki in test [1] came out at 0.255 nM.

In the case of `CCC[C@@]1(CCc2ccc(F)cc2)CC(O)=C([C@H](CC)c2cccc(NS(=O)(=O)c3cn(C)cn3)c2)C(=O)O1` (single isomer, unassigned) [Example 368, N-[3-{1(R or S)-(4-Hydroxy-5,6-dihydro-2-oxo-6(R or S)-(2-(4-fluorophenyl)ethyl)-6-propyl-2H-pyran-3-yl)propyl}phenyl]-1-methyl-1H-imidazole-4-sulfonamide], the inhibition constant (Ki) in test [1] is 0.232 nM.

On to `Cn1cnc(S(=O)(=O)Nc2cccc(C(C3=C(O)CC(CCC4CC4)(CCC4CC4)OC3=O)C(C)(C)C)c2)c1` (centres unmarked) [Example 264, N-[3-(1-[6,6-Bis-(2-cyclopropyl-ethyl)-5,6-dihydro-4-hydroxy-2-oxo-2H-pyran-3-yl]-2,2-dimethyl-propyl)phenyl]-1-methyl-1H-imidazole-4-sulfonamide], for which, in test [2] (setting [4]), the inhibitory constant (Ki) was determined as 3.7 nM. In test [3], the inhibition at 0.123 µM was 67.2%, the inhibition at 0.37 µM turned out to be 75%, the inhibition at 1.1 µM was determined as 67.7% and the inhibition at 3.3 µM turned out to be 57.6%. In test [3], the inhibition at 10 µM is 53.7% and the inhibition at 30 µM was 64.6%.

Turning to `O=c1oc2c(c(O)c1C(c1cccc(NS(=O)(=O)c3ccccn3)c1)C1CC1)CCCCCC2` (centres unmarked) [Example 239], the Ki in test [2] (setting [4]) is 1.44 nM and 0.86 nM. For the same compound, in test [3], the inhibition at 0.123 µM came to 83.6%, the inhibition at 0.37 µM came to 96.6%, the inhibition at 1.1 µM turned out to be 98.4% and the inhibition at 3.3 µM was found to be 99.5%. Besides, in test [3], the inhibition at 10 µM was 103% and the inhibition at 30 µM was determined as 108%.

As to `Cn1cnc(S(=O)(=O)Nc2cccc(C(C3=C(O)CC(CCc4ccccc4)(CCc4ccccc4)OC3=O)C3CC3)c2)c1` (centres unmarked) [Example 62], the Ki in test [2] (setting [4]) worked out at 0.8 nM. Moreover, in test [3], the inhibition at 0.123 µM was found to be 76.2%, the inhibition at 0.37 µM came to 85.2%, the inhibition at 1.1 µM turned out to be 85.3% and the inhibition at 3.3 µM worked out at 78.7%. Besides, in test [3], the inhibition at 10 µM was 79.7% and the inhibition at 30 µM came to 79.4%.

Take `CC[C@H](Cc1ccccc1)c1cc(O)c(C(c2cccc(NS(=O)(=O)c3nccn3C)c2)C2CC2)c(=O)o1` (single isomer, unassigned) [Example 143, N-(3-(R or S)-{Cyclopropyl-[6-(1-(R)-ethylphenethyl)-4-hydroxy-2-oxo-2H-pyran-3-yl]-methyl}-phenyl)-1-methyl-1H-imidazole-2-sulfonamide]: in test [2] (setting [4]), the inhibition constant (Ki) was 0.8 nM. Besides, in test [3], the inhibition at 0.123 µM is 80.8%, the inhibition at 0.37 µM stood at 97.7%, the inhibition at 1.1 µM amounted to 105% and the inhibition at 3.3 µM was found to be 102%. Further, in test [3], the inhibition at 10 µM was determined as 101% and the inhibition at 30 µM turned out to be 103%.

As to `CC[C@H](Cc1ccccc1)c1cc(O)c(C(c2cccc(NS(=O)(=O)c3ccc(C#N)cc3)c2)C2CC2)c(=O)o1` (single isomer, unassigned) [Example 148, N-(3-(R or S)-{Cyclopropyl-[6-(1-(R)-ethylphenethyl)-4-hydroxy-2-oxo-2H-pyran-3-yl]-methyl}-phenyl)-4-cyanobenzenesulfonamide], the Ki in test [2] (setting [4]) is 4.77 nM and 18.1 nM. In test [3], the inhibition at 0.123 µM was 81.3%, the inhibition at 0.37 µM was 91.7%, the inhibition at 1.1 µM was 95.6% and the inhibition at 3.3 µM turned out to be 90%. Besides, in test [3], the inhibition at 10 µM was 99.2% and the inhibition at 30 µM was found to be 93.5%.

`Nc1ccc(S(=O)(=O)Nc2cccc(CC3=C(O)CC(CCc4ccccc4)(CCc4ccccc4)OC3=O)c2)nc1` [Example 354, N-[3-{1-(4-Hydroxy-5,6-dihydro-2-oxo-6,6-bis(2-phenylethyl)-2H-pyran-3-yl)methyl}phenyl]-5-aminopyridine-2-sulfonamide]: the Ki in test [2] (setting [5]) came out at 665 nM. Moreover, the “PROTEASE % INHIB.” value is < 10% in test [3] (DOSE 0.123 (unit not given)); 10.37% in test [3] (DOSE 0.370 (unit not given)); 26.79% in test [3] (DOSE 1.100 (unit not given)); 46.1% in test [3] (DOSE 3.300 (unit not given)); 54.97% in test [3] (DOSE 10.000 (unit not given)); 54.5% in test [3] (DOSE 30.000 (unit not given)).

Turning to `O=c1oc(C(CC2CC2)CC2CC2)cc(O)c1C(c1cccc(NS(=O)(=O)c2ccc3ccccc3n2)c1)C1CC1` (centres unmarked) [Example 103, N-(3-{Cyclopropyl-[6-(2-cyclopropyl-1-cyclopropylmethyl-ethyl)-4-hydroxy-2-oxo-2H-pyran-3-yl]-methyl}-phenyl)-2-quinolinesulfonamide], the Ki in test [2] (setting [4]) was 1.72 nM. Also, in test [3], the inhibition at 0.123 µM came to 65.5%, the inhibition at 0.37 µM worked out at 82.6%, the inhibition at 1.1 µM turned out to be 96.9% and the inhibition at 3.3 µM is 100%. Further, in test [3], the inhibition at 10 µM is 105% and the inhibition at 30 µM stood at 96%.

For `Cn1cnc(S(=O)(=O)Nc2cccc(C(C3=C(O)CC(CCc4ccccc4)(CCc4ccccc4)OC3=O)C(C)(C)C)c2)c1` (centres unmarked) [Example 343, N-[3-{1-(4-Hydroxy-5,6-dihydro-2-oxo-6,6-bis(2-phenylethyl)-2H-pyran-3-yl)-2,2-dimethylpropyl}phenyl]-1-methyl-1H-imidazole-4-sulfonamide], the inhibition constant (Ki) in test [2] (setting [5]) turned out to be 2.9 nM. For the same compound, the “PROTEASE % INHIB.” value in test [3] (DOSE 0.123 (unit not given)) came to 57.5%; in test [3] (DOSE 0.370 (unit not given)), 76.83%; in test [3] (DOSE 1.100 (unit not given)) it was 81.02%; in test [3] (DOSE 3.300 (unit not given)), 86.43%; in test [3] (DOSE 10.000 (unit not given)) it was 60.56%; in test [3] (DOSE 30.000 (unit not given)), 46%.
